For test [1], the target named is cGMP-dependent 3',5'-cyclic phosphodiesterase (Homo sapiens, UniProt O00408). Description: Scintillation proximity assay (PDE2A) ( Mean (95% Confidence Interval) = 0.8 -1 nM; Ki = 0.7 nM). For orientation: SPA uses beads or plates that emit light when radiolabelled molecules are held near them.
The target in test [2] is cGMP-dependent 3',5'-cyclic phosphodiesterase (Rattus norvegicus) (UniProt Q01062). Description: Target occupancy in striatum ( p.o.dose, 1 h). In kind it is organism-based.
Sequence of cGMP-dependent 3',5'-cyclic phosphodiesterase (Rattus norvegicus) (Q01062 whole entry): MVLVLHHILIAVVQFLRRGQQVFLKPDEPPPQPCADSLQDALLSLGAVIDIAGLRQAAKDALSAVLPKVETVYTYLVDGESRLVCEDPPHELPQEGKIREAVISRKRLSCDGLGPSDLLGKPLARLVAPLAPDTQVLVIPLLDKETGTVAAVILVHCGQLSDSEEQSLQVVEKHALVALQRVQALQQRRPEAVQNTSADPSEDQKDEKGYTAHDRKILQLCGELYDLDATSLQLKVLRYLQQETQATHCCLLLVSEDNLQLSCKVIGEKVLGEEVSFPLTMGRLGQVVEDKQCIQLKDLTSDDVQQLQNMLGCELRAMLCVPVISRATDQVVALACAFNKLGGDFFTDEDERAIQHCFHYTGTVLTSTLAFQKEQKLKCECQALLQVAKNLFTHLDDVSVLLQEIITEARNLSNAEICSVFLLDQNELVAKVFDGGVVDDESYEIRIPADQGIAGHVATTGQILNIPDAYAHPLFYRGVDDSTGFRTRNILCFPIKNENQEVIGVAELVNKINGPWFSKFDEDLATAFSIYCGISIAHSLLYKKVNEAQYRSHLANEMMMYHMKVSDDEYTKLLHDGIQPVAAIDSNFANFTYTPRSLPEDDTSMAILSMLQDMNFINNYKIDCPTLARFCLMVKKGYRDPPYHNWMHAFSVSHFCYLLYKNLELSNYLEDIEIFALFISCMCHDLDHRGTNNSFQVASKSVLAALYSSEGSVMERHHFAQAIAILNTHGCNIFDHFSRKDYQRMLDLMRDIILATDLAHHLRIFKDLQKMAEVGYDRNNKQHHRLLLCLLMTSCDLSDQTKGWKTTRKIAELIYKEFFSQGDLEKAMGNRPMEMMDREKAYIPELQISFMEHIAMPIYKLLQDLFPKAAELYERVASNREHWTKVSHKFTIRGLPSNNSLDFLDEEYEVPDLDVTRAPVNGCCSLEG
In test [3] the target is cAMP and cAMP-inhibited cGMP 3',5'-cyclic phosphodiesterase 10A (Homo sapiens, UniProt Q9Y233). Description: Scintillation proximity assay (PDE10A).
Sequence of cAMP and cAMP-inhibited cGMP 3',5'-cyclic phosphodiesterase 10A (Q9Y233 whole entry): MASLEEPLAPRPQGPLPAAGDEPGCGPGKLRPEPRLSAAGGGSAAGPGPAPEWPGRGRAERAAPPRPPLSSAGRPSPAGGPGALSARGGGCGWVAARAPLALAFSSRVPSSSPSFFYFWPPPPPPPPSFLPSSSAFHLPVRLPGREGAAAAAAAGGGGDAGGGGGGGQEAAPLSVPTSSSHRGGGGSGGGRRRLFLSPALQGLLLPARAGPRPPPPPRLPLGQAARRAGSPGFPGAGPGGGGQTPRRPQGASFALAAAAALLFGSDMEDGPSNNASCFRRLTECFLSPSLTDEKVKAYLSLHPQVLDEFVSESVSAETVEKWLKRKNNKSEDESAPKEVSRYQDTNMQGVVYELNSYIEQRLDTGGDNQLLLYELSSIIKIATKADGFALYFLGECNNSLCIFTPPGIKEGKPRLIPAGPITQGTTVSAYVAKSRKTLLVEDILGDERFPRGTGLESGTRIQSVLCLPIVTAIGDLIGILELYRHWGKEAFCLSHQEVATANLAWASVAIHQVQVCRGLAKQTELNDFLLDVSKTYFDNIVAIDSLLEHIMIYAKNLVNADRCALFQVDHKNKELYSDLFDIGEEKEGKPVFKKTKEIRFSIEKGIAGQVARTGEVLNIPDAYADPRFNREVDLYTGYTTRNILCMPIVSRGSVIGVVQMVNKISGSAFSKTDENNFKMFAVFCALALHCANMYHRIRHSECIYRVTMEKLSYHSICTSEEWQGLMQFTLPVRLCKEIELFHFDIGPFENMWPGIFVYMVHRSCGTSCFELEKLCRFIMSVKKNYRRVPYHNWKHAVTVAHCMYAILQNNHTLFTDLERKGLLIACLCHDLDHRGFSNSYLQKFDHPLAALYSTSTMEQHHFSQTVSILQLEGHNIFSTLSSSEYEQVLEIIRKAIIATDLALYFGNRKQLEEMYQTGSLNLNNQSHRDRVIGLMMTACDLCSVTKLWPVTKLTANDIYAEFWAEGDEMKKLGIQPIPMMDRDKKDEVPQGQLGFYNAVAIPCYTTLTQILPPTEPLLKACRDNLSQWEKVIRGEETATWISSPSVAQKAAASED
Another test concerns the target Phosphodiesterase 3 (Homo sapiens, UniProt Q14432+Q13370). The experiment in a line: Scintillation proximity assay (PDE3). In kind it is protein assay.

For orientation: IC50 means the concentration that inhibits the measured activity by half. A low value points to inhibition by little substance. As a reminder, the ED50 is the dose at which the effect has come halfway, by size or by number of responders.

Sequence of cGMP-dependent 3',5'-cyclic phosphodiesterase (O00408 whole entry): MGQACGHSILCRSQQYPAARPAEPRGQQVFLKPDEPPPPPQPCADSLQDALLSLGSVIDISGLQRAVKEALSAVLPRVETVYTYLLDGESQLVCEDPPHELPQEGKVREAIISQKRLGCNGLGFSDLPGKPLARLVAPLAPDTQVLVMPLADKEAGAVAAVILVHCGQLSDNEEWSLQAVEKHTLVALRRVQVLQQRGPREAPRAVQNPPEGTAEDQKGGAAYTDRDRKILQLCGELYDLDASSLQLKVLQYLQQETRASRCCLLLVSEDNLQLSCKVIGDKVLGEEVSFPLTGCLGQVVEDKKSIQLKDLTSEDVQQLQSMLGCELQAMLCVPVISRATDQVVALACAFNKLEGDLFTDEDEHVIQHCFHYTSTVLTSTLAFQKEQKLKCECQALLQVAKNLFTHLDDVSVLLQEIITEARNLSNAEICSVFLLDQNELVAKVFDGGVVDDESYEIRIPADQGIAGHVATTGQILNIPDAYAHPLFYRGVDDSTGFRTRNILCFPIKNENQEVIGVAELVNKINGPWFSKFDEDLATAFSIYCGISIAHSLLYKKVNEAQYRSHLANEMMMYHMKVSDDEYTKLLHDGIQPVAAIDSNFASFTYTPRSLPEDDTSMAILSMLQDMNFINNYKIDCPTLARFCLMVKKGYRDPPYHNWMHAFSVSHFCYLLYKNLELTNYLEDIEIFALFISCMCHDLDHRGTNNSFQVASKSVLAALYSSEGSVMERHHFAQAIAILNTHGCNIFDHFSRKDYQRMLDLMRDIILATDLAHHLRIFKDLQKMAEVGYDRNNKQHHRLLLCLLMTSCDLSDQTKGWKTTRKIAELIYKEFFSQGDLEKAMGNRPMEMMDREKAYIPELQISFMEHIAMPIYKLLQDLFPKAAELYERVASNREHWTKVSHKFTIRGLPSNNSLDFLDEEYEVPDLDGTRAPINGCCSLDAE

`Cc1cc(C(=O)N2CC[C@H](C)[C@@H](c3cc(C(F)F)nc4ncnn34)C2)cc(C)n1`: the figures for the IC50 (in test [1]; in test [3]; on Phosphodiesterase 3) were 97 nM (not active), > 10 µM (not active) and over 10 µM, respectively. For the same compound, in test [2], the ED50 is over 80 mg/kg.

Values taken from ChEMBL document CHEMBL5723585, “Data for DCP probe JNJ-54082730” (2024).
